From paper PMC8157569 (Pharmaceuticals, 2021)
Structures can show the parent of a compound that is named as a salt.

Target: T1, α1A-adrenoceptor (Homo sapiens, UniProt P35348)
T1 construct: gene ADRA1A
T1 sequence (P35348 1-466): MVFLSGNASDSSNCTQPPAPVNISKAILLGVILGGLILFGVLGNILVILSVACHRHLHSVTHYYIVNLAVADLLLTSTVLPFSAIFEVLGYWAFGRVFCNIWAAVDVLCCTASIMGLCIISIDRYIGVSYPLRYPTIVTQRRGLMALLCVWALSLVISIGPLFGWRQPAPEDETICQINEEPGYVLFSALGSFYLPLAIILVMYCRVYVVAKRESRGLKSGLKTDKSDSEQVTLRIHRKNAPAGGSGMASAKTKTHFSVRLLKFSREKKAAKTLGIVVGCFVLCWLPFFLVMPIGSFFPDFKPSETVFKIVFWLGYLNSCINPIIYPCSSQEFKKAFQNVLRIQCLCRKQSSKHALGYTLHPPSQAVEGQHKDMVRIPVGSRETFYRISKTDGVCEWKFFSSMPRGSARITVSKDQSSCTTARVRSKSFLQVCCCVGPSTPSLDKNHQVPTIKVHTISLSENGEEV
Test: aequorin luminescence calcium assay, antagonist mode against phenylephrine, cells stably expressing human α1A-adrenoceptor
Format: cell-based

IC50: 1.42 nM
Compound: COc1ccccc1N1CCN(CCCOc2c(C)cccc2C)CC1 [MH-76, 1-[3-(2,6-dimethylphenoxy)propyl]-4-(2-methoxyphenyl)piperazine hydrochloride]
